Where two headings read alike, the source gives them in different places. Bridge positions count the residues as written; N and C are the ends. Square brackets hold non-standard residues; d marks the D form. Peptide text beside a SMILES is read from it. I, II: the chains in the order shown.
Legend:
SARS-CoV-2 PLpro [1] = molecular target: T1, SARS-CoV-2 PLpro (Severe acute respiratory syndrome coronavirus 2, UniProt P0DTD1); experiment: Microscale thermophoresis (MST) binding assay; conditions: 100 nM labelled PLpro, peptides 0.015 to 500 µM, 50 mM HEPES pH 7.5, 100 mM NaCl, 2 mM DTT, DMSO 5%; triplicate, Hill fit
SARS-CoV-2 PLpro [2] = molecular target: T1, SARS-CoV-2 PLpro; experiment: SARS-CoV-2 PLpro FRET enzyme inhibition assay; assay type: biochemical; conditions: for inhibition at 10 µM: 10 µM peptide, 27 µM substrate, 37 °C
SARS-CoV-2 = conditions: for SARS-CoV-2 % of inhibition at 100 µM: 24 h
[3] = calculated from IC50 values, Figure 3A, read-out: pIC50 (−logIC50), PLpro (converted)
[4] = 70 nM enzyme, 27 µM FRET substrate, 50 mM HEPES pH 7.5, 0.01% Triton X-100, 5 mM DTT, 30 min pre-incubation at 37 °C, Hill fit, two independent experiments, read-out: IC50 against PLpro

| Structure (SMILES) | Kd (SARS-CoV-2 PLpro [1]) | inhibition at 10 µM (SARS-CoV-2 PLpro [2]; 70 nM enzyme) | IC50 (SARS-CoV-2 PLpro [2]; [3]) | SARS-CoV-2 % of inhibition at 100 µM (SARS-CoV-2) | IC50 (SARS-CoV-2 PLpro [2]; [4]) | SI = selectivity index (CC50/EC50) (SARS-CoV-2; CC50/EC50 in Vero cells) |
| --- | --- | --- | --- | --- | --- | --- |
| CC(C)C[C@H](NC(=O)[C@H](Cc1c[nH]cn1)NC(=O)[C@H](Cc1ccc(O)cc1)NC(=O)[C@H](CCCNC(=N)N)NC(=O)[C@H](Cc1ccc(O)cc1)NC(=O)[C@H](CCCCN)NC(=O)[C@@H](N)CCCCN)C(=O)N[C@@H](CCCCN)C(=O)N1CCC[C@H]1C(=O)N[C@@H](Cc1ccccc1)C(=O)NCCCC[C@H](NC(=O)[C@H](Cc1ccccc1)NC(=O)[C@@H]1CCCN1C(=O)[C@H](CCCCN)NC(=O)[C@H](CC(C)C)NC(=O)[C@H](Cc1c[nH]cn1)NC(=O)[C@H](Cc1ccc(O)cc1)NC(=O)[C@H](CCCNC(=N)N)NC(=O)[C@H](Cc1ccc(O)cc1)NC(=O)[C@H](CCCCN)NC(=O)[C@@H](N)CCCCN)C(N)=O [(pBthTX-I)2K, des-Cys^11,Lys^12,Lys^13-(pBthTX-I)2K] (I: H-KKYRYHLKPFK-NH2 / II: H-KKYRYHLKPF; amide I:11-II:C) | 0.9 ± 0.1 µM | 98% | 2400 nM |  |  |  |
| CC(C)C[C@H](NC(=O)[C@H](Cc1c[nH]cn1)NC(=O)[C@H](Cc1ccc(O)cc1)NC(=O)[C@H](CCCNC(=N)N)NC(=O)[C@H](Cc1ccc(O)cc1)NC(=O)[C@H](CCCCN)NC(=O)[C@H](C)N)C(=O)N[C@@H](CCCCN)C(=O)N1CCC[C@H]1C(=O)N[C@@H](Cc1ccccc1)C(=O)NCCCC[C@H](NC(=O)[C@H](Cc1ccccc1)NC(=O)[C@@H]1CCCN1C(=O)[C@H](CCCCN)NC(=O)[C@H](CC(C)C)NC(=O)[C@H](Cc1c[nH]cn1)NC(=O)[C@H](Cc1ccc(O)cc1)NC(=O)[C@H](CCCNC(=N)N)NC(=O)[C@H](Cc1ccc(O)cc1)NC(=O)[C@H](CCCCN)NC(=O)[C@H](C)N)C(N)=O [A1] (I: H-AKYRYHLKPFK-NH2 / II: H-AKYRYHLKPF; amide I:11-II:C) | 6 ± 3 µM | 97% |  | 4% | 3500 ± 100 nM |  |
| CC(C)C[C@H](NC(=O)[C@H](Cc1c[nH]cn1)NC(=O)[C@H](Cc1ccc(O)cc1)NC(=O)[C@H](CCCNC(=N)N)NC(=O)[C@H](Cc1ccc(O)cc1)NC(=O)[C@H](C)NC(=O)[C@@H](N)CCCCN)C(=O)N[C@@H](CCCCN)C(=O)N1CCC[C@H]1C(=O)N[C@@H](Cc1ccccc1)C(=O)NCCCC[C@H](NC(=O)[C@H](Cc1ccccc1)NC(=O)[C@@H]1CCCN1C(=O)[C@H](CCCCN)NC(=O)[C@H](CC(C)C)NC(=O)[C@H](Cc1c[nH]cn1)NC(=O)[C@H](Cc1ccc(O)cc1)NC(=O)[C@H](CCCNC(=N)N)NC(=O)[C@H](Cc1ccc(O)cc1)NC(=O)[C@H](C)NC(=O)[C@@H](N)CCCCN)C(N)=O [A2] (I: H-KAYRYHLKPFK-NH2 / II: H-KAYRYHLKPF; amide I:11-II:C) | 7 ± 3 µM | 99% |  | 10% | 2400 ± 30 nM |  |
| CC(C)C[C@H](NC(=O)[C@H](Cc1c[nH]cn1)NC(=O)[C@H](Cc1ccc(O)cc1)NC(=O)[C@H](CCCNC(=N)N)NC(=O)[C@H](C)NC(=O)[C@H](CCCCN)NC(=O)[C@@H](N)CCCCN)C(=O)N[C@@H](CCCCN)C(=O)N1CCC[C@H]1C(=O)N[C@@H](Cc1ccccc1)C(=O)NCCCC[C@H](NC(=O)[C@H](Cc1ccccc1)NC(=O)[C@@H]1CCCN1C(=O)[C@H](CCCCN)NC(=O)[C@H](CC(C)C)NC(=O)[C@H](Cc1c[nH]cn1)NC(=O)[C@H](Cc1ccc(O)cc1)NC(=O)[C@H](CCCNC(=N)N)NC(=O)[C@H](C)NC(=O)[C@H](CCCCN)NC(=O)[C@@H](N)CCCCN)C(N)=O [A3] (I: H-KKARYHLKPFK-NH2 / II: H-KKARYHLKPF; amide I:11-II:C) | 6 ± 4 µM | 95% |  |  | 1000 ± 30 nM |  |
| CC(C)C[C@H](NC(=O)[C@H](Cc1c[nH]cn1)NC(=O)[C@H](Cc1ccc(O)cc1)NC(=O)[C@H](C)NC(=O)[C@H](Cc1ccc(O)cc1)NC(=O)[C@H](CCCCN)NC(=O)[C@@H](N)CCCCN)C(=O)N[C@@H](CCCCN)C(=O)N1CCC[C@H]1C(=O)N[C@@H](Cc1ccccc1)C(=O)NCCCC[C@H](NC(=O)[C@H](Cc1ccccc1)NC(=O)[C@@H]1CCCN1C(=O)[C@H](CCCCN)NC(=O)[C@H](CC(C)C)NC(=O)[C@H](Cc1c[nH]cn1)NC(=O)[C@H](Cc1ccc(O)cc1)NC(=O)[C@H](C)NC(=O)[C@H](Cc1ccc(O)cc1)NC(=O)[C@H](CCCCN)NC(=O)[C@@H](N)CCCCN)C(N)=O [A4] (I: H-KKYAYHLKPFK-NH2 / II: H-KKYAYHLKPF; amide I:11-II:C) | 3 ± 1 µM | 97% |  | 10% | 2000 ± 30 nM |  |
| CC(C)C[C@H](NC(=O)[C@H](Cc1c[nH]cn1)NC(=O)[C@H](C)NC(=O)[C@H](CCCNC(=N)N)NC(=O)[C@H](Cc1ccc(O)cc1)NC(=O)[C@H](CCCCN)NC(=O)[C@@H](N)CCCCN)C(=O)N[C@@H](CCCCN)C(=O)N1CCC[C@H]1C(=O)N[C@@H](Cc1ccccc1)C(=O)NCCCC[C@H](NC(=O)[C@H](Cc1ccccc1)NC(=O)[C@@H]1CCCN1C(=O)[C@H](CCCCN)NC(=O)[C@H](CC(C)C)NC(=O)[C@H](Cc1c[nH]cn1)NC(=O)[C@H](C)NC(=O)[C@H](CCCNC(=N)N)NC(=O)[C@H](Cc1ccc(O)cc1)NC(=O)[C@H](CCCCN)NC(=O)[C@@H](N)CCCCN)C(N)=O [A5] (I: H-KKYRAHLKPFK-NH2 / II: H-KKYRAHLKPF; amide I:11-II:C) | 3 ± 2 µM | 95% |  |  | 1900 ± 10 nM |  |
| CC(C)C[C@H](NC(=O)[C@H](C)NC(=O)[C@H](Cc1ccc(O)cc1)NC(=O)[C@H](CCCNC(=N)N)NC(=O)[C@H](Cc1ccc(O)cc1)NC(=O)[C@H](CCCCN)NC(=O)[C@@H](N)CCCCN)C(=O)N[C@@H](CCCCN)C(=O)N1CCC[C@H]1C(=O)N[C@@H](Cc1ccccc1)C(=O)NCCCC[C@H](NC(=O)[C@H](Cc1ccccc1)NC(=O)[C@@H]1CCCN1C(=O)[C@H](CCCCN)NC(=O)[C@H](CC(C)C)NC(=O)[C@H](C)NC(=O)[C@H](Cc1ccc(O)cc1)NC(=O)[C@H](CCCNC(=N)N)NC(=O)[C@H](Cc1ccc(O)cc1)NC(=O)[C@H](CCCCN)NC(=O)[C@@H](N)CCCCN)C(N)=O [A6] (I: H-KKYRYALKPFK-NH2 / II: H-KKYRYALKPF; amide I:11-II:C) | 5 ± 3 µM | 97% |  | 22% | 1800 ± 70 nM |  |
| CC(C)C[C@H](NC(=O)[C@H](Cc1c[nH]cn1)NC(=O)[C@H](Cc1ccc(O)cc1)NC(=O)[C@H](CCCNC(=N)N)NC(=O)[C@H](Cc1ccc(O)cc1)NC(=O)[C@H](CCCCN)NC(=O)[C@@H](N)CCCCN)C(=O)N[C@@H](C)C(=O)N1CCC[C@H]1C(=O)N[C@@H](Cc1ccccc1)C(=O)NCCCC[C@H](NC(=O)[C@H](Cc1ccccc1)NC(=O)[C@@H]1CCCN1C(=O)[C@H](C)NC(=O)[C@H](CC(C)C)NC(=O)[C@H](Cc1c[nH]cn1)NC(=O)[C@H](Cc1ccc(O)cc1)NC(=O)[C@H](CCCNC(=N)N)NC(=O)[C@H](Cc1ccc(O)cc1)NC(=O)[C@H](CCCCN)NC(=O)[C@@H](N)CCCCN)C(N)=O [A8] (I: H-KKYRYHLAPFK-NH2 / II: H-KKYRYHLAPF; amide I:11-II:C) |  | 99% | 2400 nM |  |  |  |
| CC(C)C[C@H](NC(=O)[C@H](Cc1c[nH]cn1)NC(=O)[C@H](Cc1ccc(O)cc1)NC(=O)[C@H](CCCNC(=N)N)NC(=O)[C@H](Cc1ccc(O)cc1)NC(=O)[C@H](CCCCN)NC(=O)[C@@H](N)CCCCN)C(=O)N[C@@H](CCCCN)C(=O)N1CCC[C@H]1C(=O)N[C@@H](C)C(=O)NCCCC[C@H](NC(=O)[C@H](C)NC(=O)[C@@H]1CCCN1C(=O)[C@H](CCCCN)NC(=O)[C@H](CC(C)C)NC(=O)[C@H](Cc1c[nH]cn1)NC(=O)[C@H](Cc1ccc(O)cc1)NC(=O)[C@H](CCCNC(=N)N)NC(=O)[C@H](Cc1ccc(O)cc1)NC(=O)[C@H](CCCCN)NC(=O)[C@@H](N)CCCCN)C(N)=O [A10] (I: H-KKYRYHLKPAK-NH2 / II: H-KKYRYHLKPA; amide I:11-II:C) |  | 98% |  | 7% | 2400 ± 200 nM |  |
| CC(C)C[C@@H](NC(=O)[C@@H](Cc1c[nH]cn1)NC(=O)[C@@H](Cc1ccc(O)cc1)NC(=O)[C@@H](CCCNC(=N)N)NC(=O)[C@@H](Cc1ccc(O)cc1)NC(=O)[C@@H](CCCCN)NC(=O)[C@H](N)CCCCN)C(=O)N[C@H](CCCCN)C(=O)N1CCC[C@@H]1C(=O)N[C@H](Cc1ccccc1)C(=O)NCCCC[C@@H](NC(=O)[C@@H](Cc1ccccc1)NC(=O)[C@H]1CCCN1C(=O)[C@@H](CCCCN)NC(=O)[C@@H](CC(C)C)NC(=O)[C@@H](Cc1c[nH]cn1)NC(=O)[C@@H](Cc1ccc(O)cc1)NC(=O)[C@@H](CCCNC(=N)N)NC(=O)[C@@H](Cc1ccc(O)cc1)NC(=O)[C@@H](CCCCN)NC(=O)[C@H](N)CCCCN)C(N)=O [A12] (I: H-[dK][dK][dY][dR][dY][dH][dL][dK][dP][dF][dK]-NH2 / II: H-[dK][dK][dY][dR][dY][dH][dL][dK][dP][dF]; amide I:11-II:C; N-terminus assumed) | 1.6 ± 0.3 µM | 96% | 1290 nM | 69% |  |  |
| Cc1c(-c2ccc(-c3ccccc3F)cc2)nc2ccc(F)cc2c1C(=O)O [BREQ, brequinar, reference compound] |  |  |  |  |  | >25 |
| CC[C@H](C)[C@H](N)C(=O)N[C@@H](Cc1ccccc1)C(=O)NCC(=O)N[C@@H](C)C(=O)N[C@H](C(=O)N[C@@H](CC(C)C)C(=O)N1CCC[C@H]1C(=O)N[C@@H](CC(C)C)C(=O)N[C@@H](C)C(=O)N[C@@H](CC(C)C)C(=O)NCC(=O)N[C@@H](C)C(=O)N[C@@H](CC(C)C)C(=O)N[C@@H](CCCCN)C(=O)N[C@@H](CC(N)=O)C(=O)N[C@@H](CC(C)C)C(=O)N[C@H](C(=O)N[C@@H](CCCCN)C(N)=O)[C@@H](C)CC)[C@@H](C)CC [Hy-a1, Hylin a1, reference compound] (H-IFGAILPLALGALKNLIK-NH2; N-terminus and C-terminus assumed) |  | 13% |  | 59% |  |  |
